Experimental data published in publication PMC11999280, “Design and screening of novel endosomal escape compounds that enhance functional delivery of oligonucleotides in vitro” (Molecular Therapy. Nucleic Acids, 2025).

What was measured:
Type in all cases: cell-based
[1] = test system: mCherry-GAL9 expressing NCI-H358 cells; test: GAL9 recruitment assay, NCI-H358; conditions: calculated mean from >3 independent exp.
Procedure: (§1) Experiments assessing GAL9 localization as an indicator for endosomal remodeling were performed as previously described[15] using 8× stablemCherry-GAL9 expressing cell lines, SHSY5Y, U2OS, 16HBE, NCI-H358, HuH7, HepG2, HEK293, and HeLa. For mCherry-GAL9 recruitment, 3,000 or 6,500 cells/well (depending upon cell line) were seeded into 384-well CellCarrier Ultra plates 24 h prior to treatment (PerkinElmer, catalog no. 6007558). An Echo 655T acoustic dispenser (Labcyte) was used for EEE dose-response preparation by transferring to the cell plate. At assay endpoints, cells were PBS washed, 4% paraformaldehyde fixed at room temperature […] (VWR, catalog no. 9713.1000), and nuclei stained with PBS +1 μg/mL Hoechst 33342 (Thermo Fisher Scientific, catalog no. H21492).
(§2) Imaging was performed using a spinning-disk confocal microscope (Yokogawa: CV8000) with a ×20w objective (numerical aperture 1.0). Cells and mCherry-GAL9 structure identification and quantification were done using Columbus image-analysis software (PerkinElmer version 2.9.0). Data processing was done using Spotfire (Tibco version 11.4) and Prism (GraphPad version 9.1.0). Image panels were assembled using the FigureJ plugin for FIJI.[43] All mCherry-GAL9 experiments were performed three times (N = 3) with duplicated wells per treatment (n = 2).

[2] = test system: mCherry-GAL9 expressing HeLa cells; test: GAL9 recruitment assay, HeLa; conditions: calculated mean from >3 independent exp.
Procedure: as §1, §2

[3] = test system: mCherry-GAL9 expressing HepG2 cells; test: GAL9 recruitment assay, HepG2; conditions: calculated mean from >3 independent exp.
Procedure: as §1, §2

[4] = test system: HeLa_Luc705 cells (pLuc/705 splice-switching reporter); test: Functional 705-SSO delivery, luciferase splice-switching assay; conditions: HeLa-Luc705 + 2 µM SSO, mean from >3 independent experiments
Source text: Therefore, next, we functionally screened the SSO delivery in the HeLa_Luc705 reporter cell line. HeLa_Luc705 carries a pLuc/705 splice-switching reporter luciferase gene interrupted by a mutated β-globin intron, which creates a preferentially used cryptic 5′ splice site leading to aberrant splicing. Functional SSO delivery masks the cryptic site, redirecting the splicing machinery to the right splicing site, allowing the measurement of luciferase expression (Figure S1).[25]^,[26]^,[27]^,[28] We used SSO transfection with LF2000 as transfection control and the previously published endosomal escape enhancer CMP05 (here, EEE2) as positive control.[15]
For the assessment of functional SSO therapeutics, a HeLa_Luc705 cell line was grown in DMEM media supplemented with 10% fetal bovine serum (FBS). For most treatments, 10,000 cells/well were seeded in a 96-well plate, 24 h pre-incubated with 1- to 2-μM oligonucleotide, and then treated at the described EEE concentration. At 24 h post-treatment, cells were PBS rinsed and collected for further analysis (treatments and incubation times changed accordingly to the experiment design). Luciferase readout was performed as previously described,[15] using a GloMax 96-well plate microplate luminometer (Promega) immediately after adding 30 μL auto-injected luciferin substrate (Promega Firefly Luciferase Assay System; Thermo Scientific, catalog no. 16174) in a white-walled 96-well plate containing 30 μL 0.1% Triton X-100 (Sigma-Aldrich) cell lysed. Photon exposure time and delay were set to 10 and 2 s after injection. LF2000 was used as the transfection reagent control (Thermo Scientific, catalog no. 11668019). For EEE experiments using 1 or 2 μM SSOs, the control was prepared using lipofection with 100–200 nM SSO; this is to avoid complex induced cell toxicity.
705-SSO was purchased from and synthesized by Integrated DNA Technologies. The 705-SSO sequence was previously published, containing 2′-O-methylated bases and only phosphorothioate-saturated backbone linkages were included.[15] The 705-SSO was high-performance liquid chromatography purified, shipped, and stored in IDTE buffer (10 mM Tris, 0.1 mM EDTA).

[5] = test system: mCherry-GAL9 expressing HEK293 cells; test: GAL9 recruitment assay, HEK293; conditions: calculated mean from >3 independent exp.
Procedure: as §1, §2

[6] = test system: mCherry-GAL9 expressing U2OS cells; test: GAL9 recruitment assay, U2OS; conditions: calculated mean from >3 independent exp.
Procedure: as §1, §2

[7] = test system: mCherry-GAL9 expressing SHSY5Y cells; test: GAL9 recruitment assay, SHSY5Y; conditions: calculated mean from >3 independent exp.
Procedure: as §1, §2

[8] = test system: mCherry-GAL9 expressing 16HBE cells; test: GAL9 recruitment assay, 16HBE; conditions: calculated mean from >3 independent exp.
Procedure: as §1, §2

[9] = test system: mCherry-GAL9 expressing HuH7 cells; test: GAL9 recruitment assay, HuH7; conditions: calculated mean from >3 independent exp.
Procedure: as §1, §2

## CCOc1nn(C2CCN(C)CC2)cc1Nc1ncc(C(F)(F)F)c(-c2c[nH]c3ccccc23)n1 [EEE15]
[1]; EEE 0.31 µM
  Gal9 response compared to reference: 0.013
[1]; EEE 0.62 µM
  Gal9 response compared to reference: 0.016
[1]; EEE 1.25 µM
  Gal9 response compared to reference: 0.017
[1]; EEE 2.5 µM
  Gal9 response compared to reference: 0.015
[1]; EEE 5 µM
  Gal9 response compared to reference: 0.016
[1]; EEE 10 µM
  Gal9 response compared to reference: 0.011
[2]; EEE 0.31 µM
  Gal9 response compared to reference: 0.004
[2]; EEE 0.62 µM
  Gal9 response compared to reference: 0.004
[2]; EEE 1.25 µM
  Gal9 response compared to reference: 0.004
[2]; EEE 2.5 µM
  Gal9 response compared to reference: 0.005
[2]; EEE 5 µM
  Gal9 response compared to reference: 0.004
[2]; EEE 10 µM
  Gal9 response compared to reference: 0.003
[3]; EEE 0.31 µM
  Gal9 response compared to reference: 0.008
[3]; EEE 0.62 µM
  Gal9 response compared to reference: 0.008
[3]; EEE 1.25 µM
  Gal9 response compared to reference: 0.009
[3]; EEE 2.5 µM
  Gal9 response compared to reference: 0.007
[3]; EEE 5 µM
  Gal9 response compared to reference: 0.007
[3]; EEE 10 µM
  Gal9 response compared to reference: 0.010
[4]; EEE 2.5 - 3 µM
  Luciferase expression compared to reference: 0.652
[5]; EEE 0.31 µM
  Gal9 response compared to reference: 0.020
[5]; EEE 0.62 µM
  Gal9 response compared to reference: 0.019
[5]; EEE 1.25 µM
  Gal9 response compared to reference: 0.015
[5]; EEE 2.5 µM
  Gal9 response compared to reference: 0.015
[5]; EEE 5 µM
  Gal9 response compared to reference: 0.018
[5]; EEE 10 µM
  Gal9 response compared to reference: 0.022
[6]; EEE 0.31 µM
  Gal9 response compared to reference: 0.010
[6]; EEE 0.62 µM
  Gal9 response compared to reference: 0.009
[6]; EEE 1.25 µM
  Gal9 response compared to reference: 0.010
[6]; EEE 2.5 µM
  Gal9 response compared to reference: 0.009
[6]; EEE 5 µM
  Gal9 response compared to reference: 0.014
[6]; EEE 10 µM
  Gal9 response compared to reference: 0.014
[7]; EEE 0.31 µM
  Gal9 response compared to reference: 0.014
[7]; EEE 0.62 µM
  Gal9 response compared to reference: 0.017
[7]; EEE 1.25 µM
  Gal9 response compared to reference: 0.014
[7]; EEE 2.5 µM
  Gal9 response compared to reference: 0.016
[7]; EEE 5 µM
  Gal9 response compared to reference: 0.012
[7]; EEE 10 µM
  Gal9 response compared to reference: 0.012
[8]; EEE 0.31 µM
  Gal9 response compared to reference: 0.006
[8]; EEE 0.62 µM
  Gal9 response compared to reference: 0.007
[8]; EEE 1.25 µM
  Gal9 response compared to reference: 0.007
[8]; EEE 2.5 µM
  Gal9 response compared to reference: 0.008
[8]; EEE 5 µM
  Gal9 response compared to reference: 0.010
[8]; EEE 10 µM
  Gal9 response compared to reference: 0.034
[9]; EEE 0.31 µM
  Gal9 response compared to reference: 0.008
[9]; EEE 0.62 µM
  Gal9 response compared to reference: 0.007
[9]; EEE 1.25 µM
  Gal9 response compared to reference: 0.008
[9]; EEE 2.5 µM
  Gal9 response compared to reference: 0.009
[9]; EEE 5 µM
  Gal9 response compared to reference: 0.009
[9]; EEE 10 µM
  Gal9 response compared to reference: 0.011

## CCOc1nn(C2CCN(C)CC2)cc1Nc1ncc(F)c(-n2ccc3c(C#N)cccc32)n1 [EEE13]
[1]; EEE 0.31 µM
  Gal9 response compared to reference: 0.019
[1]; EEE 0.62 µM
  Gal9 response compared to reference: 0.018
[1]; EEE 1.25 µM
  Gal9 response compared to reference: 0.013
[1]; EEE 2.5 µM
  Gal9 response compared to reference: 0.014
[1]; EEE 5 µM
  Gal9 response compared to reference: 0.015
[1]; EEE 10 µM
  Gal9 response compared to reference: 0.038
[2]; EEE 0.31 µM
  Gal9 response compared to reference: 0.005
[2]; EEE 0.62 µM
  Gal9 response compared to reference: 0.004
[2]; EEE 1.25 µM
  Gal9 response compared to reference: 0.004
[2]; EEE 2.5 µM
  Gal9 response compared to reference: 0.003
[2]; EEE 5 µM
  Gal9 response compared to reference: 0.007
[2]; EEE 10 µM
  Gal9 response compared to reference: 0.023
[3]; EEE 0.31 µM
  Gal9 response compared to reference: 0.008
[3]; EEE 0.62 µM
  Gal9 response compared to reference: 0.007
[3]; EEE 1.25 µM
  Gal9 response compared to reference: 0.008
[3]; EEE 2.5 µM
  Gal9 response compared to reference: 0.009
[3]; EEE 5 µM
  Gal9 response compared to reference: 0.006
[3]; EEE 10 µM
  Gal9 response compared to reference: 0.007
[4]; EEE 5 µM
  Luciferase expression compared to reference: 1.314
[4]; EEE 1-1.25 µM
  Luciferase expression compared to reference: 0.743
[4]; EEE 2.5 - 3 µM
  Luciferase expression compared to reference: 0.692
[5]; EEE 0.31 µM
  Gal9 response compared to reference: 0.018
[5]; EEE 0.62 µM
  Gal9 response compared to reference: 0.024
[5]; EEE 1.25 µM
  Gal9 response compared to reference: 0.021
[5]; EEE 2.5 µM
  Gal9 response compared to reference: 0.020
[5]; EEE 5 µM
  Gal9 response compared to reference: 0.032
[5]; EEE 10 µM
  Gal9 response compared to reference: 0.097
[6]; EEE 0.31 µM
  Gal9 response compared to reference: 0.014
[6]; EEE 0.62 µM
  Gal9 response compared to reference: 0.011
[6]; EEE 1.25 µM
  Gal9 response compared to reference: 0.010
[6]; EEE 2.5 µM
  Gal9 response compared to reference: 0.014
[6]; EEE 5 µM
  Gal9 response compared to reference: 0.023
[6]; EEE 10 µM
  Gal9 response compared to reference: 0.072
[7]; EEE 0.31 µM
  Gal9 response compared to reference: 0.014
[7]; EEE 0.62 µM
  Gal9 response compared to reference: 0.015
[7]; EEE 1.25 µM
  Gal9 response compared to reference: 0.012
[7]; EEE 2.5 µM
  Gal9 response compared to reference: 0.013
[7]; EEE 5 µM
  Gal9 response compared to reference: 0.044
[7]; EEE 10 µM
  Gal9 response compared to reference: 0.421
[8]; EEE 0.31 µM
  Gal9 response compared to reference: 0.009
[8]; EEE 0.62 µM
  Gal9 response compared to reference: 0.011
[8]; EEE 1.25 µM
  Gal9 response compared to reference: 0.010
[8]; EEE 2.5 µM
  Gal9 response compared to reference: 0.013
[8]; EEE 5 µM
  Gal9 response compared to reference: 0.044
[8]; EEE 10 µM
  Gal9 response compared to reference: 0.306
[9]; EEE 0.31 µM
  Gal9 response compared to reference: 0.010
[9]; EEE 0.62 µM
  Gal9 response compared to reference: 0.007
[9]; EEE 1.25 µM
  Gal9 response compared to reference: 0.011
[9]; EEE 2.5 µM
  Gal9 response compared to reference: 0.015
[9]; EEE 5 µM
  Gal9 response compared to reference: 0.012
[9]; EEE 10 µM
  Gal9 response compared to reference: 0.046
